Results on seven molecules are retold here after US20220062258A1, “Heterocyclic derivatives” (Merck Patent GmbH, priority 2019, published 2022).

Assay [1] concerns HUVEC primary endothelial cells. Description: HUVEC proliferation assay (CyQUANT Direct). The note with it: Homo sapiens, 72 h, 3 days incubation. It counts as cell-based. Here is the method:
HUVEC Proliferation Assay
Proliferation of HUVEC primary endothelial cells was used as cell-based mechanistical assay.^25 Applying the CyQUANT@ Direct Cell Proliferation Assay (Invitrogen C35011) which is based on a cell-permeant fluorescent DNA-binding dye, DNA content is used as a direct measure for cell number. Pooled HUVEC cells (Promocell C-12203) are cultivated in the medium supplied by Promocell (Cat No C-22020) for maximum 4 passages. For the assay 500 cells/well are seeded into black 384-well culture plates with clear bottom in 70 μl culture medium and incubated for 6 hours at 37° C., 5% CO2. 10 μl prediluted test compounds are added and cells incubated for 3 days at 37° C., 5% CO2 before measurement of DNA content. CyQUANT detection reagent is prepared according to the manufacturers protocol, 20 μl/well added and incubated at 37° C., 5% CO2 for at least 1 h before measurement of fluorescence at Envision multimode reader (Perkin-Elmer, Waltham) with excitation 480 nm and emission 535 nm (bottom read mode). The assay is performed as dose response with 10 compound dilutions. Inhibitory values (IC50) were determined using the program ASSAY ANALYZER® from GeneData (Basel, Switzerland).

Assay [2] has as its target T1, MetAP-2 (Homo sapiens, UniProt P50579). The assay is described as follows: Biochemical activity testing of MetAP-2 (enzyme-coupled assay, Met-Ala-Ser substrate). Set-up: N-terminal His tag human rec MetAP2 (prepared in house, AA 2-478, final concentration (fc) 123 nM); His tag (N); TEV cleavage site (N); made in house. As to the method: Biochemical Activity Testing of MetAP-2
MetAP-2 activity was determined by an enzyme-coupled assay using the tripeptide Met-Ala-Ser (MAS) as substrate and recombinant human MetAP-2 (His-Tev-MetAP-2, prepared at Merck). The released methionine is converted by L-amino acid oxidase (AAO) to oxidized Methionine and hydrogen peroxide is released. In a second step horse radish peroxidase catalyzes the oxidation of the leuko dye dianisidine to oxidized dianisidine using hydrogen peroxide as co-substrate. The produced dianisidine ox was detected photometrically as increase in absorbance at 450 nm. Met-AP2 activity was determined in a kinetic measurement mode. The release of one molecule methionine corresponds to the production of one molecule dianisidine ox. The MetAP2 enzymatic activity is directly corresponding to the increase in absorbance per time.
In detail, the assay was performed in 384 well microtiter plate (Greiner 78110 MTP, transparent) in a total reaction volume of 50 μl at 22° C. 0.35 μg of N-terminal His tag human rec MetAP2 (prepared in house, AA 2-478, final concentration (fc) 123 nM), 1 unit horse radish Peroxidase (Roche, Mannheim), 0.02 unit L-amino acid oxidase (Merck, Darmstadt), 0.6 mM dianisidine (Merck, Darmstadt, dissolved in 50 mM HCl, 10% DMSO) were incubated in the absence or presence of the test compound (10 dilution concentrations) in 100 mM Hepes, 50 mM NaCl, 50 μM MnCl2 at pH 7.0 for 15 min at 22° C. The reaction was started by the addition of 500 μM (fc) MAS peptide (Merck, Darmstadt). After mixing the first absorbance measurement was performed on an Envision multimode reader (Perkin-Elmer, Waltham) at wavelength of 450 nm. The reaction was incubated at 22° C. for additional 45 min and the second absorbance measurement was performed. The increase of absorbance per time was determined. The control value used was the inhibitor-free reaction with 0.5% DMSO (fc). As pharmacological inhibitor control Fumagillin (Merck, Darmstadt) in a final concentration of 5 μM was used. The inhibitory values (IC50) were determined using the program ASSAY ANALYZER® from GeneData (Basel, Switzerland).
Target sequence in this assay (P50579 2-478): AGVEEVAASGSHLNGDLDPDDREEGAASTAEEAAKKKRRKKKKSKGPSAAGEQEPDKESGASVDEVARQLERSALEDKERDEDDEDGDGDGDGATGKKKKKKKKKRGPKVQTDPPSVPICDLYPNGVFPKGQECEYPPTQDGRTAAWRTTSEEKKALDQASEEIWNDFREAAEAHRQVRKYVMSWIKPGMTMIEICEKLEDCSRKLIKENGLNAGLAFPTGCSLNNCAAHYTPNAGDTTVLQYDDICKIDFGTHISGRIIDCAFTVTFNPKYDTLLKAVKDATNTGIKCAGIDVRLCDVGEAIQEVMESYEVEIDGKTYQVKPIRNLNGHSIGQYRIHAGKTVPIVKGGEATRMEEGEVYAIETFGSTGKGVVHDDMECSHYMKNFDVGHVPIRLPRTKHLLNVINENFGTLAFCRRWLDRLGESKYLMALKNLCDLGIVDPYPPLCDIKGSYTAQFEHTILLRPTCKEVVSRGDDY

Assay [3] deals with T1, MetAP-2. The assay is described as follows: Degradation of MetAP-2 in HCT116 cells (Western blot, MetAp2/GAPDH signal). It counts as cell-based. Set-up: endogenous in cells; host or cells: HCT116. The note with it: 0.1 μM, 24 hrs, HTC116 cells; <1 means degradation. As to the method:
See scans below. […] The initial MetAP-2 degradation results were obtained after 24 h incubation of the compounds in three different concentrations (0.1; 1; 10 μM), cell lysis, SDS-PAGE separation, blotting and antibody aided detection.
Comparison of MetAP2 protein levels in HTC116 cells after compound treatments at different concentrations and time points. As control, DMSO was used and its values set as “1”. MetAp2 values <1 means degradation.
2. Exemplary Testing of the Compound
HCT116 cells were sown in 6-well plates. Pipette 1 mL fresh medium to every well and incubate for at least 1 h (37° C., 5% CO2, 95% rH).
Harvest and count cells in Vi-Cell. Equinr. 70198475 Adjust cell concentration to 0.35e^6 cells/mL and add 1 mL of cell suspension (total 0,35e^6 cells/well).
Incubate cells for 24 hours (37° C., 5% CO2, 95% rH)
HCT116: 24 h: ˜50% confluent before treatment
Compounds will be thawed the first time, stock: 10 mM; final concentration: 10 μM & 1 μM & 0.1 μM
Treatment with DMSO based solution with Digital Dispenser: HCT116 platte 2A1.jpg_meta.xml • create new dispensing protocol for compound • apply name of test compound and its stock concentration (in mM) for testing • 3×1:10 dilution series • final 0.3% DMSO, DMSO normalization for every well • shaking after compound/DMSO addition
Incubate cells for further 24 hours (37° C., 5% C02, 95% rH)
HCT116: 70-80% confluent before lysis • after incubation cells were lysed with RIPA lysis buffer including Halt™
all steps performed on ice or at 4° C. • aspirate supernatant from cells • wash cells twice with 2.0 mL ice cold PBS buffer • aspirate supernatant from cells after each washing step • lyse cells with 100 μL Ripa lysis buffer per well • scrape cells with cell scraper and transfer lysates to Eppendorf Cups • incubate for 15 min on ice • centrifuge […] at 13000×g and 4° C. • transfer supernatants to fresh Eppendorf cups • removal of 20 μL lysate for BCA assay • aliquot and freeze at −20° C.
Determination of protein concentration of lysates with BCA Protein Assay Kit. BSA supplied with the kit is 2 mg/mL.
Dilute the standard (Stock BSA concentration=2 mg/mL) in a 96 well plate: Samples were run 1:4. Dilute in lysing buffer, lysing buffer alone was run to determine the background from detergents in the assay.
BCA reagent: Dilute Reagent A and Reagent B in a 1:50 ratio. To 9.8 mL A add 200 μL B.
Assay Procedure: Pipette 5 μL/well of standard or samples to 96 wells (see plate layout). Samples were run in duplicate. Blanks=5 μL/well PBS or 5 μL/well lysing buffer. Add 100 μL/well of the prepared BCA reagent. Tap plate to mix or shake for 1-2 min on the Eppendorf mixer. Incubate at 37° C. for 30 min.
Read the OD at 562 nm. Plate was read on EnVision 2104 Multilabel Reader (Perkin Elmer, Equipment Number 70160330) last verification of instrument 17.08.2017 (once a year) (A25/531). AEH181012_BCA.csv
In EXCEL the duplicates were averaged and the average background PBS was subtracted for the standard curve.
A trend line was created, the intercept (b) was set at 0. The R^2 should be >0.950 for acceptable results. The lysate buffer blank was subtracted from the test values and the averaged, background-corrected O.D. values were used with the equation to calculate mg/ml and then were corrected for the dilution factor for the final mg/mL value. Only results from OD values within the range of the standard curve are acceptable. Values outside of the standard curve range are ignored. BCA AEH00350 Berechnung.xlsx
6. Sample Calculation and Preparation • thaw lysates of AEH00350 on ice • calculate sample volume for Western Blot loading 10 μg total protein/13 μL per slot: • dilute samples with lysis buffer and 10× reducing agent & 4×LDS buffer to 10 μg. • heat them at 70° C. for 10 min and 1000 rmp
7. […]
(In general: In western blotting, separated proteins are transferred to a membrane and probed.)
Target sequence in this assay (P50579 whole entry, the tested form may be a part): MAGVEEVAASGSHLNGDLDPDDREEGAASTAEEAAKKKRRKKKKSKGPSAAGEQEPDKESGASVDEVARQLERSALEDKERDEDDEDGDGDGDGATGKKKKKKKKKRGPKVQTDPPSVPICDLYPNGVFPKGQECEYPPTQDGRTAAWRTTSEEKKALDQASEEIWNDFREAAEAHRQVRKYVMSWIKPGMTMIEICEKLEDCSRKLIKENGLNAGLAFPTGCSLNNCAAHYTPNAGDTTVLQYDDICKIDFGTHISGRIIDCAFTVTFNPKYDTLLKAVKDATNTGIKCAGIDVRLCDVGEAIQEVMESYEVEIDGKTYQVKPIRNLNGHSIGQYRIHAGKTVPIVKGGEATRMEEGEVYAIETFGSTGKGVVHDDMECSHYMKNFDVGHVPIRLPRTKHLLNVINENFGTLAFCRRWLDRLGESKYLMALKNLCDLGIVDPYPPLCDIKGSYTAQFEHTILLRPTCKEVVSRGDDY

Assay [4] has as its target T1, MetAP-2. The assay is described as above. It counts as cell-based. Set-up: endogenous in cells; host or cells: HCT116. The note with it: 0.1 μM, 6 hrs, HTC116 cells; <1 means degradation.
Target sequence in this assay (P50579 whole entry, the tested form may be a part): as above

Take `Cc1ncsc1-c1ccc(CNC(=O)[C@@H]2C[C@@H](O)CN2C(=O)[C@@H](NC(=O)COCCOCCOCCOCCOCCNC(=O)c2cc3cc(N4CCC(O)(C(=O)NCc5cc(F)cc(F)c5)C4=O)ccc3[nH]2)C(C)(C)C)cc1` (stereo partly drawn) [Compound A8, 5-[3-[(3,5-difluorophenyl)methylcarbamoyl]-3-hydroxy-2-oxo-pyrrolidin-1-yl]-N-[2-[2-[2-[2-[2-[2-[[(1S)-1-[(2S,4R)-4-hydroxy-2-[[4-(4-methylthiazol-5-yl)phenyl]-methylcarbamoyl]pyrrolidine-1-carbonyl]-2,2-dimethyl-propyl]amino]-2-oxoethoxy]ethoxy]ethoxy]ethoxy]ethoxy]ethyl]-1H-indole-2-carboxamide]: the IC50 is 30000 nM in assay [1] and 330 nM against MetAP-2 [2].
The like results for `Cc1ncsc1-c1ccc(CNC(=O)[C@@H]2C[C@@H](O)CN2C(=O)[C@@H](NC(=O)CCCCCNC(=O)c2cc3cc(N4CC[C@@](O)(C(=O)NCc5cc(F)cc(F)c5)C4=O)ccc3[nH]2)C(C)(C)C)cc1` (mixture of isomers) [Compound A3, (3RS)—N-[(3,5-difluorophenyl)methyl]-3-hydroxy-1-{2-[(5-{[(2S)-1-[(2S,4R)-4-hydroxy-2-({[4-(4-methyl-1,3-thiazol-5-yl)phenyl]methyl}carbamoyl)pyrrolidin-1-yl]-3,3-dimethyl-1-oxobutan-2-yl]carbamoyl}pentyl)carbamoyl]-1H-indol-5-yl}-2-oxopyrrolidine-3-carboxamide] were, in that order, 30000 nM and 550 nM.
With `O=C1CCC(N2C(=O)c3ccc(NCCCCCNC(=O)c4cc5cc(N6CCC(O)(C(=O)NCc7cc(F)cc(F)c7)C6=O)ccc5[nH]4)cc3C2=O)C(=O)N1` (centres unmarked) [Compound A4, 5-[3-[(3,5-difluorophenyl)methylcarbamoyl]-3-hydroxy-2-oxo-pyrrolidin-1-yl]-N-[5-[[2-(2,6-dioxo-3-piperidyl)-1,3-dioxo-isoindolin-5-yl]amino]pentyl]-1H-indole-2-carboxamide], the values for the IC50 (in assay [1]; at MetAP-2 [2]) were 1600 nM and 480 nM, respectively.
The like results for `O=C1CCC(N2C(=O)c3cccc(NCCOCCOCCNC(=O)c4cc5cc(N6CCC(O)(C(=O)NCc7cc(F)cc(F)c7)C6=O)ccc5[nH]4)c3C2=O)C(=O)N1` (centres unmarked) [Compound A5, 5-[3-[(3,5-difluorophenyl)methylcarbamoyl]-3-hydroxy-2-oxo-pyrrolidin-1-yl]-N-[2-[2-[2-[[2-(2,6-dioxo-3-piperidyl)-1,3-dioxo-isoindolin-4-yl]amino]ethoxy]-ethoxy]ethyl]-1-H-indole-2-carboxamide] were, in that order, 5800 nM and 330 nM.
For the molecule `Cc1ncsc1-c1ccc(CNC(=O)[C@@H]2C[C@@H](O)CN2C(=O)[C@@H](NC(=O)COCCOCCOCCOCCNC(=O)c2cc3cc(N4CCC(O)(C(=O)NCc5cc(F)cc(F)c5)C4=O)ccc3[nH]2)C(C)(C)C)cc1` (some centres unmarked) [Compound A7], the half-inhibitory concentration (IC50) was determined as 7300 nM in assay [1] and 320 nM against MetAP-2 [2].
Consider `O=C1CCC(N2C(=O)c3cccc(NCCOCCOCCOCCOCCOCCNC(=O)c4cc5cc(N6CC(O)C(O)(C(=O)NCc7cc(F)cc(F)c7)C6=O)ccc5[nH]4)c3C2=O)C(=O)N1` (centres unmarked) [Compound A21, 5-[3-[(3,5-difluorophenyl)methylcarbamoyl]-3,4-dihydroxy-2-oxo-pyrrolidin-1-yl]-N-[2-[2-[2-[2-[2-[2-[[2-(2,6-dioxo-3-piperidyl)-1,3-dioxo-isoindolin-4-yl]amino]ethoxy]ethoxy]ethoxy]ethoxy]ethoxy]ethyl]-1H-indole-2-carboxamide], for which the “Signal MetAp2/GAPDH normalized to untreated (DMSO)” value on MetAP-2 [3] was 1.2; on MetAP-2 [4], 1.3.
For the molecule `Cc1ncsc1-c1ccc(CNC(=O)[C@@H]2C[C@@H](O)CN2C(=O)[C@@H](NC(=O)COCCOCCNC(=O)c2cc3cc(N4CCC(O)(C(=O)NCc5cc(F)cc(F)c5)C4=O)ccc3[nH]2)C(C)(C)C)cc1` (stereo partly drawn) [Compound A6, 5-[3-[(3,5-difluorophenyl)methylcarbamoyl]-3-hydroxy-2-oxo-pyrrolidin-1-yl]-N-[2-[2-[2-[[(1S)-1-[(2S,4R)-4-hydroxy-2-[[4-(4-methylthiazol-5-yl)phenyl]methylcarbamoyl]pyrrolidine-1-carbonyl]-2,2-dimethyl-propyl]amino]-2-oxoethoxy]ethoxy]ethyl]-1H-indole-2-carboxamide], the IC50 in assay [1] is 30000 nM; on MetAP-2 [2], 370 nM.

One may read the IC50 as the concentration that gives 50% inhibition. Lower therefore signals greater potency in that assay.
